{
  "source": "paper PMC8648872",
  "about": "“A host-directed macrocyclic peptide therapeutic for MDR gram negative bacterial infections” (Scientific Reports, 2021)",
  "key": {"[1]": {"system": "Kp-1705", "assay": "Antibacterial activity of peptide-containing peritoneal fluid", "format": "cell-based, K. pneumoniae", "conditions": "Kp-1705 incubated in PF containing 7.5 µg/ml peptide, 1 h, 37 °C, CFU plating", "procedure": "Cryopreserved Kp-1705 was suspended in PBS to a density of ca. 1 × 10^9 CFU/ml, and incubated with saline or 1.25 µg/ml MTD12813 at room temperature for 1 h. Mice (n = 26) were then infected i.p. with 500 µl of saline- or MTD12813- pretreated Kp-1705, and a third cohort (n = 12) received 500 µl i.p. of 1.25 µg/ml MTD12813 immediately following infection with saline treated Kp-1705. Five mice from each cohort were euthanized 4 h p.i., and peritoneal lavage was collected for bacterial burden determination and cytospin preparation. In vitro antibacterial activity of MTD12813 (1.25 μg/ml) -treated cells (1 h; 37 °C) was determined by plating saline or peptide treated cells on TSA plates. Growth kinetics of saline and MTD12813-treated cells was determined by diluting samples from the 1 h incubation mixtures 1:40 into TSB and monitoring growth (620 nm) for 5.5 h at 37 °C. Antibacterial activity of MTD12813 in PF was determined by i.p. injection of naïve male BALB/c mice (n = 5 per group) with 1.25 mg/kg of MTD12813 or saline i.p. (10 ml/kg). […] Peritoneal fluid was clarified by centrifugation at 1200×g and an aliquot used to quantify MTD12813 by LC–MS/MS, as described above. Antimicrobial activity was determined by incubating PF (9:1 vol/vol) with Kp-1705 at a final density of 3 × 10^7 CFU/ml. […]"}, "[2]": {"system": "neutrophils", "assay": "Neutrophil recruitment (peritoneal lavage and blood)", "format": "in vivo, BALB/c mice", "procedure": "Blood, peritoneal lavage fluid, and spleen homogenates were obtained from mice following by CO2 euthanasia. Citrate-anti-coagulated blood was collected by aseptic cardiac puncture. Peritoneal lavage was performed by injecting 3 ml of PBS into the peritoneal cavity, massaging the abdomen, and then collecting fluid aseptically through a minor incision in the abdominal wall. Spleen was surgically removed and homogenized in sterile PBS using Polytron PT10-35 homogenizer. Samples were serially diluted and plated in triplicate on TSA plates, incubated overnight at 37 °C and colonies counted.\nEDTA-anticoagulated blood was collected aseptically by terminal cardiac puncture and analyzed for complete blood cell count using an Element HT5 hematology analyzer (Heska). Blood plasma and clarified peritoneal lavage were prepared by two-step centrifugation described previously. Plasma cytokine levels were quantified using a mouse-specific MILLIPLEX MAP kit (Millipore Cat# MCYTMAG-70K) as described."}, "[3]": {"system": "RAW 264.7 macrophages", "assay": "TNF release by LPS-stimulated RAW 264.7 cells", "format": "cell-based, mouse", "conditions": "RAW 264.7, 5 ng/ml LPS, 2 h, ELISA", "procedure": "Mouse RAW 264.7 macrophages (RAW cells; ATCC, TIB-71) were grown in Dulbecco’s Modified Eagle Medium (DMEM) with 10% heat-inactivated fetal bovine serum (HI-FBS) with 100 U/ml penicillin/streptomycin, and suspended to 2–3 × 10^6 cells/ml in fresh media before use.\nRAW cells were seeded into 48-well tissue culture plates at 1–1.5 × 10^5 cells/well and allowed to adhere overnight. Cells were washed twice and suspended in DMEM with 1% FBS with 0–5 µg/ml of MTD12813 immediately followed by addition of 5 ng/ml (25 EU/ml) of E. coli 0111:B4 LPS (Sigma L4391). Plates were incubated for 2 h at 37 °C in 5% CO2. Well contents were removed, clarified by centrifugation, and supernatants frozen at − 80 °C. Supernatant TNF was quantified by mouse TNF ELISA (Invitrogen, Cat #BMS607-3)."}, "[4]": {"assay": "Peptide stability in human serum", "format": "in vitro ADME", "conditions": "90% (vol/vol) human serum, 37 °C, C18 RP-UPLC with PDA detector, read-out: peptide remaining intact", "procedure": "MTD12813 (final concentration of 100 µg/ml) was added to either 90% human EDTA plasma or 90% human serum and incubated at 37 °C for 48 h. Samples were processed by addition of 10% HOAc and 5% ACN (final concentrations) at time 0 and 48 h, and MTD12813 was quantified by C18 RP-HLPC on an Acquity H-Class UPLC with an analytical PDA detector using Empower 3 software (Waters). All samples were performed with technical replicates and analyzed by UPLC in duplicate and the experiment repeated once. […] A time 0 h sample was collected, and the remaining suspension incubated at 37 °C for 24 h. Samples were processed by addition of 5% formic acid/5% acetonitrile, vortexed, and clarified at 22,000×g for 10 min. Supernatant MTD12813 was then quantified by LC–MS/MS as described in PK section above. All samples were performed with technical replicates and analyzed by LC–MS/MS in duplicate."}, "[5]": {"assay": "Stability in aqueous media", "format": "physicochemical", "conditions": "including acidic solutions as low as pH 2.0; preliminary, data not shown"}},
  "note": "“Also recorded” adds a separate entry of the source. Where a SMILES comes first, the peptide text is derived from it. Bridges are numbered along the chain shown (N, C = ends).",
  "data": [
    {"smiles": "CC[C@H](C)[C@@H]1NC(=O)[C@@H]2CSSC[C@H](NC(=O)[C@H]([C@@H](C)CC)NC(=O)[C@@H]3CSSC[C@H](NC1=O)C(=O)N[C@@H](C(C)C)C(=O)NCC(=O)N[C@@H](CCCNC(=N)N)C(=O)NCC(=O)N3)C(=O)N[C@@H](C(C)C)C(=O)N[C@@H](CCCNC(=N)N)C(=O)N[C@@H](CCCNC(=N)N)C(=O)N[C@@H](CCCNC(=N)N)C(=O)N2", "note": "[MTD12813] (cyclo(CICVGRGCICVRRR); disulfide 1-10, 3-8)", "values": [
      {"measurement": "bacterial killing in peritoneal fluid containing peptide", "setting": "[1]", "value": "no bacterial killing was observed; also recorded: no bactericidal activity"},
      {"measurement": "PLF neutrophils versus saline", "setting": "[2]; Kp-1705 infected mice, 1.25 mg/kg i.p. 1 h p.i., 24 h, P = 0.0048", "value": "threefold increase"},
      {"measurement": "blood neutrophils", "setting": "[2]; Kp-1705 infected mice, 1.25 mg/kg i.p. 1 h p.i., peak at ca. 2 h p.i.", "value": "transient peripheral blood neutrophilia"},
      {"measurement": "PLF neutrophil numbers in sham-infected mice", "setting": "[2]; sham-infected mice, 24 h after peptide delivery", "value": "no increase in neutrophil numbers"},
      {"measurement": "concentration for 50% TNF suppression relative to RTD-1", "setting": "[3]", "value": "ca. fourfold lower concentration than RTD-1"},
      {"measurement": "remaining at 48 h, 100 µg/ml", "setting": "[4]", "value": "> 95", "unit": "%"},
      {"measurement": "stability in aqueous media", "setting": "[5]", "value": "exceedingly stable"}
    ]}
  ]
}
